Experimental data reported in US20170042962A1, “AGENT FOR PREVENTING OR AM[…] ENDOTHELIAL MALFUNCTION” (KYOWA HAKKO BIO CO., LTD., priority 2012, published 2017).

System: HUVEC
Assay: NO production (nitrite, NO2, in culture supernatant by HPLC) after adding samples to HUVEC
Format: cell-based, human
Conditions: citrulline final concentration 0.3 mM, 24-hour culture, vs control (PBS)
Description: The cells were cultured in at 37° C., in 5% CO2 incubator, and used for experiment after 4 to 6 passages. Citrulline and reduced glutathione were obtained from Kyowa Hakko Bio.
A cell suspension (0.45 mL) with the adjusted initial cell concentration of 5×10^5 cells/mL was inoculated in a 24-well plate (IWAKI).
Media with the sole addition of solvent (PBS) were used as a control group. After 24-hour culture, the cell culture (100 μL) was centrifuged at 12,000 rpm for 10 minutes, and the concentration of nitrite (NO2), which is the stable NO metabolite, in culture supernatant was quantified by HPLC (ENO-20, EICOM).

SMILES: NC(=O)NCCC[C@H](N)C(=O)O [citrulline, L-citrulline]
- effect on NO production (nitrite concentration in culture supernatant): no effect
